Measurements as given in EP0137212A2, “Ointment bases and ointments” (OTSUKA PHARMACEUTICAL CO., LTD., priority 1983, dated 1985).
In brackets after ≈: the same amount, converted by molar mass. Where two headings read alike, the source gives them in different places.

Key:
Steroid Solubility Test = format: physicochemical
Experimental: This test was conducted to determine the maximum weight of Steroids A and B that could completely dissolve in 1 ml of various solvents at a temperature of 20°C.

[1] = test system: carrageenin-induced paw edema; assay: Inhibition of carrageenin-induced paw edema in rats; format: in vivo; settings: 200 mg ointment (Ointment A / Ointment B) rubbed into right hind paw 1 and 2 hours before carrageenin
Experimental: After the ointment was applied to a rat's hind paw, carrageenin serving as a phlogogen was injected into the same hind paw, and the swelling caused by the phlogogen was measured. More specifically stated, the test was carried out as given below, using groups of 5 rats (weighing 175 g). First, the right hind paw of the rat was immersed in water, and the displacement was measured thereby giving the volume of hind paw. One and 2 hours before the injection of the phlogogen (carrageenin), 200 mg of the ointment was elaborately rubbed into the right hind paw of the rat, which was then wrapped in Saran Wrap (trademark) and covered with an elastic strip of adhesive plaster. Thereafter, 0.1 ml of a 1% solution of carrageenin was injected into the right hind paw, and the volume of the hind paw was hourly measured to determine the swelling (%) according to the following equation based on the volume thereof before the injection with the results shown in Fig. 1. [formula] wherein V0 is the volume of the right hind paw before the injection of carrageenin and V1 is the volume thereof after the injection of carrageenin.

solubility (Steroid Solubility Test; organic solvent or mixture, solvent 1,3-Butanediol, 20°C, read-out: maximum weight that could completely dissolve in 1 ml of solvent)	solubility (Steroid Solubility Test; organic solvent or mixture, solvent 1,3-Dimethyl-2-imidazolidinone, 20°C, read-out: maximum weight that could completely dissolve in 1 ml of solvent)	solubility (Steroid Solubility Test; organic solvent or mixture, solvent Benzyl alcohol, 20°C, read-out: maximum weight that could completely dissolve in 1 ml of solvent)	solubility (Steroid Solubility Test; organic solvent or mixture, solvent Diethyl sebacate, 20°C, read-out: maximum weight that could completely dissolve in 1 ml of solvent)	solubility (Steroid Solubility Test; organic solvent or mixture, solvent Polyethylene glycol 400, 20°C, read-out: maximum weight that could completely dissolve in 1 ml of solvent)	solubility (Steroid Solubility Test; organic solvent or mixture, solvent Propylene glycol, 20°C, read-out: maximum weight that could completely dissolve in 1 ml of solvent)	SMILES	solubility (Steroid Solubility Test; 1,3-butanediol, organic solvent or mixture)	solubility (Steroid Solubility Test; 1,3-dimethyl-2-imidazolidinone, organic solvent or mixture)	solubility (Steroid Solubility Test; benzyl alcohol, organic solvent or mixture)	solubility (Steroid Solubility Test; diethyl sebacate, organic solvent or mixture)	solubility (Steroid Solubility Test; polyethylene glycol 400, organic solvent or mixture)	solubility (Steroid Solubility Test; propylene glycol, organic solvent or mixture)	anti-inflammatory activity (swelling of hind paw, Fig. 1, in words) [1]
–	–	–	–	–	–	CCOC(=O)O[C@]1(C(=O)OCCl)[C@H](C)C[C@H]2[C@@H]3CCC4=CC(=O)C=C[C@]4(C)[C@@]3(F)[C@@H](O)C[C@@]21C [Steroid B, chloromethyl 17a-ethoxycarbonyloxy-9a-fluoro-11β-hydroxy-16α-methylandrosta-1,4-diene-3-one-17β-carboxylate]	50 µg/mL (≈ 0.1 mM)	52100 µg/mL (≈ 104 mM)	920 µg/mL (≈ 1.84 mM)	280 µg/mL (≈ 0.561 mM)	450 µg/mL (≈ 0.902 mM)	100 µg/mL (≈ 0.2 mM)	exhibit an anti-inflammatory activity
1950 µg/mL (≈ 4.18 mM)	357000 µg/mL (≈ 765 mM)	> 25000 µg/mL	6850 µg/mL (≈ 14.7 mM)	13300 µg/mL (≈ 28.5 mM)	2700 µg/mL (≈ 5.78 mM)	CCOC(=O)O[C@]1(C(=O)OCCl)CC[C@H]2[C@@H]3CCC4=CC(=O)C=C[C@]4(C)[C@H]3[C@@H](O)C[C@@]21C [Steroid A, chloromethyl 17α-ethoxycarbonyloxy-11β-hydroxyandrosta-1,4-diene-3-one-17β-carboxylate]	–	–	–	–	–	–	exhibit an anti-inflammatory activity
